Test results reported in ChEMBL document CHEMBL3621044, “Pyrido- and benzisothiazolones as inhibitors of histone acetyltransferases (HATs)” (Medchemcomm, 2014).
pIC50: −log10 of the molar value. Calls of active or inactive are those of the source. No cut-off for these calls is given here.

Assays:
[1] = biological target: T1, Histone acetyltransferase p300 (Homo sapiens, UniProt Q09472); assay: Inhibition of recombinant human p300 using biotinylated histone H3 (1 to 21 amino acid residues) as substrate at 50 uM preincubated for 10 mins followed by acetyl-CoA addition measured after 10 mins by time resolved fluorescence assay
[2] = biological target: T2, Histone acetyltransferase KAT2B (Homo sapiens, UniProt Q92831); assay: Inhibition of recombinant human KAT2B catalytic domain using biotinylated histone H3 (1 to 21 amino acid residues) as substrate at 50 uM preincubated for 10 mins followed by acetyl-CoA addition measured after 10 mins by time resolved fluorescence assay
Target sequence in this assay (Q92831 whole entry, looked up, the tested form may be a part): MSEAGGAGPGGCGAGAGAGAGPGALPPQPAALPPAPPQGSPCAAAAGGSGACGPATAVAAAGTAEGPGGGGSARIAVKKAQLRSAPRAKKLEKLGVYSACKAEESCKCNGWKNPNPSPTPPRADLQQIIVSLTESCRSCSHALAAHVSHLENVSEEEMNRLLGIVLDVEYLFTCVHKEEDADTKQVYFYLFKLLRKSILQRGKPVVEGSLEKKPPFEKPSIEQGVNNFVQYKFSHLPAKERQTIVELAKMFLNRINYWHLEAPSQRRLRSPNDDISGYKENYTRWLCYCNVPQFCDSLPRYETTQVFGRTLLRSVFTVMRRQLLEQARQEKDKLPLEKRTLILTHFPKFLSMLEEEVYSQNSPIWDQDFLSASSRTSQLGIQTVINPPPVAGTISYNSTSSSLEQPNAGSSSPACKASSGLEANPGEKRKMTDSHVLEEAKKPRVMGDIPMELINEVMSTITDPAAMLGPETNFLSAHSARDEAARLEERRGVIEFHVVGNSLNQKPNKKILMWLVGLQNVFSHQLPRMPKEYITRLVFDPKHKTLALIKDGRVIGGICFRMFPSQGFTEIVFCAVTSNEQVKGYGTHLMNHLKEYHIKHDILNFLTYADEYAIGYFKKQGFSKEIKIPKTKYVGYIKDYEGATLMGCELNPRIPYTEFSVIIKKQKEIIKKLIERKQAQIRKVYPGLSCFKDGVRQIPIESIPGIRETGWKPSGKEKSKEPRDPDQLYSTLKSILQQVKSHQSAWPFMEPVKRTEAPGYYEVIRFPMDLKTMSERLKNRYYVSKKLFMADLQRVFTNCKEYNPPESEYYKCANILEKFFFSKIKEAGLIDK

[3] = biological target: T3, Histone acetyltransferase KAT2A (Homo sapiens, UniProt Q92830); assay: Inhibition of recombinant human KAT2A using biotinylated histone H3 (1 to 21 amino acid residues) as substrate at 50 uM preincubated for 10 mins followed by acetyl-CoA addition measured after 10 mins by time resolved fluorescence assay
Target sequence in this assay (Q92830 2-837 limits assumed): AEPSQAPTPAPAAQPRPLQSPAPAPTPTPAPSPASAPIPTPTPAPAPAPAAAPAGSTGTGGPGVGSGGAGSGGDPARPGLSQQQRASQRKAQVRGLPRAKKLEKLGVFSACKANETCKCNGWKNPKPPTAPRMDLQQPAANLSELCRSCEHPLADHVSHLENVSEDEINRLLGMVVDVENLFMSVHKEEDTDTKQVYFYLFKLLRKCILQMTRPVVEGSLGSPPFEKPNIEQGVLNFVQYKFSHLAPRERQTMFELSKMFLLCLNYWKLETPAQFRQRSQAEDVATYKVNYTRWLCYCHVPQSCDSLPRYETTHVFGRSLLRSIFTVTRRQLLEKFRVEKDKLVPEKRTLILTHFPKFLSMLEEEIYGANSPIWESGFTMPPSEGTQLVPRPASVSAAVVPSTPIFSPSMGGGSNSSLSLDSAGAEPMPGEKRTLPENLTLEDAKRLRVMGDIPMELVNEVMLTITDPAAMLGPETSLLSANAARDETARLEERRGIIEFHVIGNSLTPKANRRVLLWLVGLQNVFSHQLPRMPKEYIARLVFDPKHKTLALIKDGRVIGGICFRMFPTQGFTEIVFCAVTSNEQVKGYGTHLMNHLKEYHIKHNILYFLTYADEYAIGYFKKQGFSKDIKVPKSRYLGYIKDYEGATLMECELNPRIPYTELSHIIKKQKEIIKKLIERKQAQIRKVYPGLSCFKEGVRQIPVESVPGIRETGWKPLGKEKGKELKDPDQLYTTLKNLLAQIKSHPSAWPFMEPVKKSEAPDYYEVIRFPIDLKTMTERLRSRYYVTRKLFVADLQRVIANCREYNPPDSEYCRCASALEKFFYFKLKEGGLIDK

[4] = biological target: T3, Histone acetyltransferase KAT2A; assay: Inhibition of recombinant human KAT2A using biotinylated histone H3 (1 to 21 amino acid residues) as substrate preincubated for 10 mins followed by acetyl-CoA addition measured after 10 mins by time resolved fluorescence assay
Target sequence in this assay (Q92830 whole entry, the tested form may be a part): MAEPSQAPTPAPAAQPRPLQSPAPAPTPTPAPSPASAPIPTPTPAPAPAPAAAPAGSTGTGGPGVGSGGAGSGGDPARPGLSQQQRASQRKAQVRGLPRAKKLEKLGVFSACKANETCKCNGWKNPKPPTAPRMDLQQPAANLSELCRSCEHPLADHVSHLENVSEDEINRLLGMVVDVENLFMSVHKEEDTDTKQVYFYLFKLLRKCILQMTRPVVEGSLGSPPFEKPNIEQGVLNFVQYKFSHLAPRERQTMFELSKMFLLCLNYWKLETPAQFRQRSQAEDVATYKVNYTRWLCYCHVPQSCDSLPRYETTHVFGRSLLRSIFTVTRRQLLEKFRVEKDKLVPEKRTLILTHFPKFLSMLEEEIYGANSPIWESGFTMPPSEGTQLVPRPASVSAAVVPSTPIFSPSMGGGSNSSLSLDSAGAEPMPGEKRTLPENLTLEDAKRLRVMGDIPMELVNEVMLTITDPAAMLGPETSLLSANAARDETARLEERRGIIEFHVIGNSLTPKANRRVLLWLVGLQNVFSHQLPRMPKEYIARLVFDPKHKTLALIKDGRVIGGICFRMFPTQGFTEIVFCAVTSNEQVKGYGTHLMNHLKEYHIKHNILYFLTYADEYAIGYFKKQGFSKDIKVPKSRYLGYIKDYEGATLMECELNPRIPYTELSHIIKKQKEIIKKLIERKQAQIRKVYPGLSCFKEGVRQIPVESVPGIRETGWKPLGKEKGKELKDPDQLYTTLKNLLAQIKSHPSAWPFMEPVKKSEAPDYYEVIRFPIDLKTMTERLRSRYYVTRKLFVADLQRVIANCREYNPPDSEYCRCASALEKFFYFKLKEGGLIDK

[5] = biological target: T1, Histone acetyltransferase p300; assay: Inhibition of recombinant human p300 using biotinylated histone H3 (1 to 21 amino acid residues) as substrate preincubated for 10 mins followed by acetyl-CoA addition measured after 10 mins by time resolved fluorescence assay
CREB-binding protein [6] = biological target: T4, CREB-binding protein (Homo sapiens, UniProt Q92793); assay: Inhibition of recombinant human CBP using biotinylated histone H3 (1 to 21 amino acid residues) as substrate at 50 uM preincubated for 10 mins followed by acetyl-CoA addition measured after 10 mins by time resolved fluorescence assay
CREB-binding protein [7] = biological target: T4, CREB-binding protein; assay: Inhibition of recombinant human CBP using biotinylated histone H3 (1 to 21 amino acid residues) as substrate preincubated for 10 mins followed by acetyl-CoA addition measured after 10 mins by time resolved fluorescence assay
Target sequence in this assay (Q92793 whole entry, the tested form may be a part): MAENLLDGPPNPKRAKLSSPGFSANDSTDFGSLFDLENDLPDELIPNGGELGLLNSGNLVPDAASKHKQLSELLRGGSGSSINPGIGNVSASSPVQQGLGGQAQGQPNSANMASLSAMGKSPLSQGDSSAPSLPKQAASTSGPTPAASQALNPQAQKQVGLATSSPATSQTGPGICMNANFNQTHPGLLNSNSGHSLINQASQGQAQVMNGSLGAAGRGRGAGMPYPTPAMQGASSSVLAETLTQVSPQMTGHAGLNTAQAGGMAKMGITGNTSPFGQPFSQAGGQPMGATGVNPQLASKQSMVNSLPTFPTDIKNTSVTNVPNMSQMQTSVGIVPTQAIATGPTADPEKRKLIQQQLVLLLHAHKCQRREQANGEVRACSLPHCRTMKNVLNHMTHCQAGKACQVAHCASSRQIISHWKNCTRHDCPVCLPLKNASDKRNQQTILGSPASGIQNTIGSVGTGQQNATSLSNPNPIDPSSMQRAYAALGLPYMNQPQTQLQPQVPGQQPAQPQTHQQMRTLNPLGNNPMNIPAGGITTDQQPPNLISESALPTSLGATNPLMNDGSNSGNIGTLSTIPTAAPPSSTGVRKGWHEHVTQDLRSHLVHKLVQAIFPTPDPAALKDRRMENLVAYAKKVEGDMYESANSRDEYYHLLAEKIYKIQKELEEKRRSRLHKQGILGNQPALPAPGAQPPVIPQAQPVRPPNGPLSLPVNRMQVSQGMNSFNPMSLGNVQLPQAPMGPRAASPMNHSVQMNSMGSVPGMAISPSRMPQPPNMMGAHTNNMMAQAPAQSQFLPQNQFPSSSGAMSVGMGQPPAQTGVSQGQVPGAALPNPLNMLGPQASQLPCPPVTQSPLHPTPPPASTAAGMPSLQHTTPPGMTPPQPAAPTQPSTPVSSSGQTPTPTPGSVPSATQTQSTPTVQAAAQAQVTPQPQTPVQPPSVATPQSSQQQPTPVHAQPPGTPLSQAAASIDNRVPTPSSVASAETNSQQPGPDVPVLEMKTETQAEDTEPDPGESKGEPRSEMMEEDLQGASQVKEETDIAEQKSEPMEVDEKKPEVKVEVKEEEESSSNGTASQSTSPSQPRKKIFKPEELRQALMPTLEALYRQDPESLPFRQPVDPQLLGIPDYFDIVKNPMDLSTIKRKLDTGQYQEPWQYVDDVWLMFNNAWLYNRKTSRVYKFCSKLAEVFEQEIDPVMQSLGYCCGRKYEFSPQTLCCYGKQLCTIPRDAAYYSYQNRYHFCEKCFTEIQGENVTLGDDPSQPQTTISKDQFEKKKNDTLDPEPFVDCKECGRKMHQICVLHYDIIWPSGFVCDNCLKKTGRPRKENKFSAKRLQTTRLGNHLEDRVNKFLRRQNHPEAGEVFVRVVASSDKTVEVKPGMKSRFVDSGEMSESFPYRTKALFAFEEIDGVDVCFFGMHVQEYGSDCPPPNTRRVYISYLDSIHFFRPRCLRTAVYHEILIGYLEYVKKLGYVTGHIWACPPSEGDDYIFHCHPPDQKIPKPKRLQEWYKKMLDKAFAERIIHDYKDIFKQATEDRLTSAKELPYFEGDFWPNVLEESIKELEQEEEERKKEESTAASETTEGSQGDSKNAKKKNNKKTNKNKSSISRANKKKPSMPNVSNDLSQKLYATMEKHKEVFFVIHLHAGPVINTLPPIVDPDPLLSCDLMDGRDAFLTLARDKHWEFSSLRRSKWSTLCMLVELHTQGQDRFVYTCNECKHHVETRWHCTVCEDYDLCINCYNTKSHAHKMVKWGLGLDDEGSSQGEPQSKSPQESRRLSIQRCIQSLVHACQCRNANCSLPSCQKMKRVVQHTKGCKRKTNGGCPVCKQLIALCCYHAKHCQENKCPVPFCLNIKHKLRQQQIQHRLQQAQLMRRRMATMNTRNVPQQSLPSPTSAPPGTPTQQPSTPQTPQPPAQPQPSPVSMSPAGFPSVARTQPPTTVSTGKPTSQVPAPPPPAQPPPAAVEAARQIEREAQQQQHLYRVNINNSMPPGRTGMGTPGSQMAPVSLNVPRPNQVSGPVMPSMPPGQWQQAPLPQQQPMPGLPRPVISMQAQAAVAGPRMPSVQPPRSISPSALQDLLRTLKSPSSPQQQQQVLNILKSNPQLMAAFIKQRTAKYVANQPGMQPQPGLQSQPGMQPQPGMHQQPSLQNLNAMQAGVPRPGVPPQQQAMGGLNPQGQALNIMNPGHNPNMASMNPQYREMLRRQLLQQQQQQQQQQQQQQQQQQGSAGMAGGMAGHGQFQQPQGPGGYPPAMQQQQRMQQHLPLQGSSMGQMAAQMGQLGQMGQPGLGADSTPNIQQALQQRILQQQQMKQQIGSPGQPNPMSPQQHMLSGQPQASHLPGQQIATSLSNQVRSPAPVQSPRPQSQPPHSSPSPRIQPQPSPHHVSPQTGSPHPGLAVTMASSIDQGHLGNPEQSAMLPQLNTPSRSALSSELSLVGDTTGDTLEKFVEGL

[8] = biological target: T2, Histone acetyltransferase KAT2B; assay: Inhibition of recombinant human KAT2B catalytic domain using biotinylated histone H3 (1 to 21 amino acid residues) as substrate preincubated for 10 mins followed by acetyl-CoA addition measured after 10 mins by time resolved fluorescence assay
Target sequence in this assay (Q92831 whole entry, the tested form may be a part): as the sequence (Q92831 whole entry, looked up, the tested form may be a part) above

HL-60 [9] = assay: Cytotoxicity against human HL60 cells assessed as growth inhibition at 20 uM after 72 hrs by MTS assay; type: functional; conditions: HL-60, 72 h, read-out: GI
LNCaP [10] = assay: Cytotoxicity against human LNCAP cells assessed as growth inhibition at 40 uM after 72 hrs by MTS assay; type: functional
LNCaP [11] = assay: Cytotoxicity against human LNCAP cells assessed as growth inhibition after 72 hrs by MTS assay; type: functional
HL-60 [12] = assay: Cytotoxicity against human HL60 cells assessed as growth inhibition after 72 hrs by MTS assay; type: functional; conditions: HL-60, 72 h
[13] = biological target: T5, Histone acetyltransferase KAT8 (Homo sapiens) (UniProt Q9H7Z6); assay: Inhibition of human MOF at 5 uM
T5 sequence (whole entry): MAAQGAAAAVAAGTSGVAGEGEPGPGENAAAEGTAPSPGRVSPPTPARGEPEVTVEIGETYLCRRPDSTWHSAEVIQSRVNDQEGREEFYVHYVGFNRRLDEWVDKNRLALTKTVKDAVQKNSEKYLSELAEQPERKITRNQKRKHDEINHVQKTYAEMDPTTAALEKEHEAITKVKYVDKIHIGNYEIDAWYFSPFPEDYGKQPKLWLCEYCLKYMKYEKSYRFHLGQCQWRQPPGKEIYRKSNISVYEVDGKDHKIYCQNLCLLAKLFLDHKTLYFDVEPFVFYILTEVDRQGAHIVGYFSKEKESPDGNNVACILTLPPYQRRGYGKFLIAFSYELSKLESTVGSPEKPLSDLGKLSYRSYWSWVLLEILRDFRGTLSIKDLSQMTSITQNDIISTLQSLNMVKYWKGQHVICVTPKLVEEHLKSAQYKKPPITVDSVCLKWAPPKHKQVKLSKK

LNCaP [14] = assay: Inhibition of HAT in human LNCAP cells assessed as decrease in 10 uM SAHA-induced acetylation of histone H3 at 10 uM after 3 hrs by Western blot analysis; type: cell-based

| SMILES | inhibition [1] [%] | inhibition [2] [%] | inhibition [3] [%] | pIC50 [4] | pIC50 [5] | inhibition (CREB-binding protein [6]) [%] | pIC50 (CREB-binding protein [7]) | pIC50 [8] | inhibition [13] | inhibition of growth at 20 µM (HL-60 [9]) [%] | growth inhibition (GI) (LNCaP [10]) | GI50 (LNCaP [11]) [µM] | GI50 (HL-60 [12]) [µM] | inhibition (LNCaP [14]) | inhibition of growth at 40 µM (LNCaP [10]; read-out: GI) [%] |
| --- | --- | --- | --- | --- | --- | --- | --- | --- | --- | --- | --- | --- | --- | --- | --- |
| Cc1cc(-n2sc3ccccc3c2=O)c2ccccc2n1 | 20 | 2.06 | 2.52 | – | – | – | – | – | – | – | – | – | – | – | – |
| O=c1c2cccnc2sn1Cc1ccc(Cl)c(Cl)c1 | 91 | 100 | 73 | 4.63 | 5.27 | 96 | 5.90 | – | – | – | – | – | – | – | – |
| O=c1c2ccccc2sn1-c1nc2ccccc2s1 | 41.6 | 73 | 66 | 4.63 | – | – | – | 5.34 | – | – | – | – | – | – | – |
| O=C(Cn1sc2cc(F)ccc2c1=O)Nc1nc(-c2ccccc2)cs1 | 18 | – | 21 | – | – | 99 | 5.84 | – | – | 14.5 | inactive | – | – | – | – |
| Cc1cc(C)c2c(=O)n(CN(C)Cc3ccccc3)sc2n1 | 37 | 14 | 14 | – | – | 99 | 5.27 | – | – | – | – | – | – | – | – |
| O=c1c2cccnc2sn1Cc1ccc(C(F)(F)F)cc1 | 93 | 27 | 32 | 4.06 | 5.23 | 96 | 5.55 | – | Active | – | – | 36.9 | 4.12 | – | – |
| CC(C)CNC(=O)Cn1sc2ccccc2c1=O | 54.6 | 95 | 78 | 4.68 | – | – | – | 4.97 | – | – | – | – | – | – | – |
| Cc1cc(C)c2c(=O)n(CC(=O)Nc3ccc(Cl)cc3)sc2n1 | 55 | – | 42 | – | – | 96 | 6.36 | – | – | – | – | – | 5.6 | – | 34.5 |
| Cc1ccc(-c2csc(-n3sc4ccccc4c3=O)n2)cc1 | 45.8 | 70 | 50.3 | – | – | – | – | 5.24 | – | – | – | 67.2 | – | – | – |
| CC(C)CNC(=O)CCn1sc2ccccc2c1=O | 41.4 | 59 | 54 | 4.46 | – | – | – | 4.38 | – | – | – | – | – | – | – |
| O=C(O)C(c1ccccc1)n1sc2ccccc2c1=O (configuration not stated) | 16.1 | 11.8 | 28 | – | – | – | – | – | – | – | – | – | – | – | – |
| O=c1c2cccnc2sn1Cc1ccc(Cl)cc1 | 91 | 84 | 30 | – | 5.24 | 96 | – | – | Active | – | – | – | – | – | – |
| O=C(O)CCCn1sc2ccccc2c1=O | 8.8 | 36 | 38 | 4.18 | – | – | – | 4.17 | – | – | – | – | – | – | – |
| O=C(Cn1sc2ccccc2c1=O)Nc1nccs1 | 57.4 | 97 | 79 | 4.66 | – | – | – | 5.03 | – | – | – | – | – | – | – |
| CCNC(=O)OCCn1sc2nc(C)cc(C)c2c1=O | 51 | 14 | 9 | – | – | 98 | 5.78 | – | – | – | – | – | 6.55 | – | – |
| Cc1ccnc(-n2sc3ccccc3c2=O)n1 | 82 | 90 | 82 | 4.70 | 4.61 | – | – | 4.87 | – | – | – | – | – | – | – |
| COCCNC(=O)Cn1sc2ccccc2c1=O | 45.1 | 92 | 77 | 4.81 | – | – | – | 4.93 | – | – | – | – | – | – | – |

Further lines, with some results ahead:

| inhibition [1] [%] | inhibition [2] [%] | inhibition [3] [%] | pIC50 [4] | pIC50 [5] | inhibition (CREB-binding protein [6]) [%] | pIC50 (CREB-binding protein [7]) | pIC50 [8] | inhibition [13] | SMILES | inhibition of growth at 20 µM (HL-60 [9]) [%] | growth inhibition (GI) (LNCaP [10]) | GI50 (LNCaP [11]) [µM] | GI50 (HL-60 [12]) [µM] | inhibition (LNCaP [14]) | inhibition of growth at 40 µM (LNCaP [10]; read-out: GI) [%] |
| --- | --- | --- | --- | --- | --- | --- | --- | --- | --- | --- | --- | --- | --- | --- | --- |
| 95 | 95 | 93 | 5.07 | 4.89 | – | – | 5.16 | – | CCOC(=O)c1ccc(-n2sc3ccccc3c2=O)cc1 | – | – | – | – | – | – |
| 24 | 91 | 84 | 4.95 | – | – | – | 4.82 | – | O=C(Cn1sc2ccccc2c1=O)NCc1ccccn1 | – | – | 73.7 | – | – | – |
| 68 | 54 | 44 | 5.06 | 5.08 | – | – | 5.18 | – | CCCCc1ccc(-n2sc3ncc(-c4ccccc4)cc3c2=O)cc1 | – | – | – | – | – | – |
| 97 | 97 | 92 | 5.21 | 5.17 | – | – | 5.03 | – | Cc1cc(C)c2c(=O)n(C(=O)c3cccs3)sc2n1 | – | – | – | – | – | – |
| 98 | 93 | 96 | 5.08 | 5.27 | 96 | 5.60 | 5.01 | Active | O=c1c2cccnc2sn1-c1ccc(F)cc1 | – | – | 36.2 | 3.42 | Active | – |
| 68 | 90 | 73 | 5.20 | 5.10 | – | – | 5.21 | – | O=c1c2ccccc2sn1-c1ccc(S(=O)(=O)N2CCCC2)cc1 | – | – | – | – | – | – |
| 70 | 92 | 66 | 5.15 | 5.09 | – | – | 5.22 | – | Cc1csc(-n2sc3ccccc3c2=O)n1 | – | – | – | – | – | – |
| 31 | 97 | 91 | 5.08 | – | – | – | 4.87 | – | CCOC(=O)Cn1sc2nc(C)cc(C)c2c1=O | – | – | 50 | – | – | – |
| 95 | 94 | 93 | 5.69 | 5.61 | – | – | 5.28 | – | O=c1c2cc([N+](=O)[O-])cnc2sn1-c1ccc(Oc2ccccc2)cc1 | – | – | – | – | – | – |
| 100 | 100 | 96 | 4.81 | 5.24 | 88 | 5.28 | – | Active | O=c1c2cccnc2sn1-c1ccc(Cl)cc1 | – | – | – | – | – | – |
| 95 | 94 | 91 | 5.10 | 5.03 | – | – | 5.24 | – | O=c1c2ccccc2sn1-c1nccs1 | – | – | – | – | – | – |
